What was measured:
NCI-H1650 = test: Antiproliferative activity against human NCI-H1650 cells assessed as reduction in cell viability; type: functional, cell-based
NCI-H1975 = test: Antiproliferative activity against human NCI-H1975 cells assessed as reduction in cell viability; type: functional, cell-based
A549 [1] = test: Antiproliferative activity against human A549 cells assessed as reduction in cell viability; type: functional, cell-based
NCI-H441 = test: Antiproliferative activity against human NCI-H441 cells assessed as reduction in cell viability; type: functional, cell-based
Histone deacetylase 4 = Histone deacetylase 4 (Homo sapiens, UniProt P56524); test: Inhibition of HDAC4 (unknown origin)
Sequence of Histone deacetylase 4 (P56524 whole entry): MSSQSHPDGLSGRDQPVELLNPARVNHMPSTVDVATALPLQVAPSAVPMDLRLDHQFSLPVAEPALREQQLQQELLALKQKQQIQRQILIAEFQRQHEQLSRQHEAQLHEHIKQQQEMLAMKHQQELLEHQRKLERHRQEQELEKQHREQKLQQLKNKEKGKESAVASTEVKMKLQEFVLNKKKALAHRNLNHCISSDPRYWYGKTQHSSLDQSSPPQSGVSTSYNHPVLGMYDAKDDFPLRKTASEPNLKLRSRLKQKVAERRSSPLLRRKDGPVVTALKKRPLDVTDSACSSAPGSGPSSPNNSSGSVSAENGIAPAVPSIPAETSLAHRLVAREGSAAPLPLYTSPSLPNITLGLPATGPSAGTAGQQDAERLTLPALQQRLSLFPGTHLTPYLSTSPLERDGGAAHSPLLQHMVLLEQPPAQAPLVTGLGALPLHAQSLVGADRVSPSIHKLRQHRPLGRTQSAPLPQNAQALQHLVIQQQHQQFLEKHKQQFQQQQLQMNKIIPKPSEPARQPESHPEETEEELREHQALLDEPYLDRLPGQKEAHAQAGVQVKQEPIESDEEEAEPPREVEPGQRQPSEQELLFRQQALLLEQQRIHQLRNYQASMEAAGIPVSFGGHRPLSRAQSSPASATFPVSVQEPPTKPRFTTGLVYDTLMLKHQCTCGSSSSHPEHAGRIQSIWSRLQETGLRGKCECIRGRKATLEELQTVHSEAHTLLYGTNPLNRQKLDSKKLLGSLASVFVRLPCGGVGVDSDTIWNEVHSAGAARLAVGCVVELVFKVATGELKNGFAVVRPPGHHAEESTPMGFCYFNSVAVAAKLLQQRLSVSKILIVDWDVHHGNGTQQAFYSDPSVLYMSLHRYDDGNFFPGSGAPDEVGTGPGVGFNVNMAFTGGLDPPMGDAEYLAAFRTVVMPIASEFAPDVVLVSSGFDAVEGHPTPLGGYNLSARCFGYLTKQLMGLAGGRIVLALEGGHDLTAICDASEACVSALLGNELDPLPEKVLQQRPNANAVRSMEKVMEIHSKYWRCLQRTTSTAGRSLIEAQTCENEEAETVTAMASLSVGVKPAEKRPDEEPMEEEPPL

Histone deacetylase 1 = Histone deacetylase 1 (Homo sapiens, UniProt Q13547); test: Inhibition of HDAC1 (unknown origin)
[2] = biological target: Vascular endothelial growth factor receptor 1 (Homo sapiens, UniProt P17948); test: Inhibition of VEGFR1 (unknown origin)
Sequence of Vascular endothelial growth factor receptor 1 (P17948 whole entry): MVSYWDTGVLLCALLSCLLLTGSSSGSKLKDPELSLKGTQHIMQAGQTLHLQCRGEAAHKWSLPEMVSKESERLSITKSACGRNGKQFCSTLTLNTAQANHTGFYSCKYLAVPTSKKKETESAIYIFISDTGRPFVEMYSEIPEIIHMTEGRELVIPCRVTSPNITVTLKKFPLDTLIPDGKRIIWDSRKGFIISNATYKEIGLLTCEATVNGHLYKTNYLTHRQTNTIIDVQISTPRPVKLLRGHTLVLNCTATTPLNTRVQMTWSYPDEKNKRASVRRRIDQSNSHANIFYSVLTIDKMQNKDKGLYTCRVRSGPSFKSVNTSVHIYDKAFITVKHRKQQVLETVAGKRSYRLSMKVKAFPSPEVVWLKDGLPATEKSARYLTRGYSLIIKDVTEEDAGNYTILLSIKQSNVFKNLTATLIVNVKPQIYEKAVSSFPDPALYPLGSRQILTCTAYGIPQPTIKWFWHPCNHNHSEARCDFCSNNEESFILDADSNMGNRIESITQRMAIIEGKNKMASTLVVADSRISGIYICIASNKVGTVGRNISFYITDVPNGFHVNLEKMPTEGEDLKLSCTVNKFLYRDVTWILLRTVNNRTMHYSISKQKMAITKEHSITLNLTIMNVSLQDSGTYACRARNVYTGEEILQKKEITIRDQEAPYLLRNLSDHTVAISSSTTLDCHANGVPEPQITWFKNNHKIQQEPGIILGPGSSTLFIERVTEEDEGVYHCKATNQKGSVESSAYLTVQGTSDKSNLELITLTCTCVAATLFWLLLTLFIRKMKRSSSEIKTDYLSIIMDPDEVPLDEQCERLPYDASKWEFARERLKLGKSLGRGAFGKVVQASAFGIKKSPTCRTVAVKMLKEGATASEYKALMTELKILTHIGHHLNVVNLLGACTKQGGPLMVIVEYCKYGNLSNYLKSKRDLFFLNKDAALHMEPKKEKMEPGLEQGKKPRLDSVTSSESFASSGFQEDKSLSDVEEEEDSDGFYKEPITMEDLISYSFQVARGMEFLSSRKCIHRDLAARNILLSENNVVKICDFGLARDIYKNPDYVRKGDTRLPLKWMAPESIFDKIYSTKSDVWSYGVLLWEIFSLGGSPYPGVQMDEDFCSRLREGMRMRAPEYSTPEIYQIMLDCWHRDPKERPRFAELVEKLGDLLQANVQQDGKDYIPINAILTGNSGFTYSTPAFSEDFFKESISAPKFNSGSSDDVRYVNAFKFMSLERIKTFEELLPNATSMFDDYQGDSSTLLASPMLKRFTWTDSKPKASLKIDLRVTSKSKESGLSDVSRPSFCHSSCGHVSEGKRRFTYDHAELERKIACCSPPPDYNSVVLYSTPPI

[3] = biological target: T1, Vascular endothelial growth factor receptor 2 (Homo sapiens, UniProt P35968); test: Inhibition of VEGFR2 (unknown origin)
T1 sequence (P35968 whole entry): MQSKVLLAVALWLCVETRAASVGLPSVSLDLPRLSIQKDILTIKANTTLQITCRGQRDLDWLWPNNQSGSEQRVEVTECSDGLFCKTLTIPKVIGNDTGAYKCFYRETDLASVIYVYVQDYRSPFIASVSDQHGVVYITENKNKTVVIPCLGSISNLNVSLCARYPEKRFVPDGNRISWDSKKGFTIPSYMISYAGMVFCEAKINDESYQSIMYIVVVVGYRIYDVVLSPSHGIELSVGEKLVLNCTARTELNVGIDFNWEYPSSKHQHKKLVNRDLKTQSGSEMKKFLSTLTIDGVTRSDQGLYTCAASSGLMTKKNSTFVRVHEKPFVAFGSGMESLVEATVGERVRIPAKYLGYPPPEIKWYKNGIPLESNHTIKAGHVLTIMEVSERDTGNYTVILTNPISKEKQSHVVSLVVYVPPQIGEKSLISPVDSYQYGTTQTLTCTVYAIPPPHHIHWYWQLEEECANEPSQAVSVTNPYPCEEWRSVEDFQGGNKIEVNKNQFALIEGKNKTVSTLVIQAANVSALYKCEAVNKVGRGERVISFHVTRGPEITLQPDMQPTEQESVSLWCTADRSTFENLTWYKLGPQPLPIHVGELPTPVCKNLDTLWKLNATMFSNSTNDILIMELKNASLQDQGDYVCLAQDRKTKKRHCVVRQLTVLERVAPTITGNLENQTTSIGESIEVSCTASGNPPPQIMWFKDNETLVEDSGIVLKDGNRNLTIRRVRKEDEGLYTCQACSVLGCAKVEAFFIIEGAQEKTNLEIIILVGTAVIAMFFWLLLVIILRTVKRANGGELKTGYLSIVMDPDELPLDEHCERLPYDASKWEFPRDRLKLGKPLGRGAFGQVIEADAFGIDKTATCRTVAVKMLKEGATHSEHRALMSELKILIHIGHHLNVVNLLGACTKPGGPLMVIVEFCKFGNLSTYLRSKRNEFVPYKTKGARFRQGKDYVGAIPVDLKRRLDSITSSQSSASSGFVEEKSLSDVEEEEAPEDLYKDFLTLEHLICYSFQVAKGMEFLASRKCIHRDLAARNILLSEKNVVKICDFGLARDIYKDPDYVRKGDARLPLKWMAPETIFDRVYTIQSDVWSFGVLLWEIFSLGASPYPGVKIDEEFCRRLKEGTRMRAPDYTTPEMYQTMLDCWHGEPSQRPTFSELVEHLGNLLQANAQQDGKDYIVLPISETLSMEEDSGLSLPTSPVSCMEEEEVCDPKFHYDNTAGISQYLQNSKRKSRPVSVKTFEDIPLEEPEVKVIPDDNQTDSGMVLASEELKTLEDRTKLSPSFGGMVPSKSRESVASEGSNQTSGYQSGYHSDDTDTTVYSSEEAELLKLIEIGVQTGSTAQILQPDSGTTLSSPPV

[4] = biological target: Vascular endothelial growth factor receptor 3 (Homo sapiens, UniProt P35916); test: Inhibition of VEGFR3 (unknown origin)
Sequence of Vascular endothelial growth factor receptor 3 (P35916 whole entry): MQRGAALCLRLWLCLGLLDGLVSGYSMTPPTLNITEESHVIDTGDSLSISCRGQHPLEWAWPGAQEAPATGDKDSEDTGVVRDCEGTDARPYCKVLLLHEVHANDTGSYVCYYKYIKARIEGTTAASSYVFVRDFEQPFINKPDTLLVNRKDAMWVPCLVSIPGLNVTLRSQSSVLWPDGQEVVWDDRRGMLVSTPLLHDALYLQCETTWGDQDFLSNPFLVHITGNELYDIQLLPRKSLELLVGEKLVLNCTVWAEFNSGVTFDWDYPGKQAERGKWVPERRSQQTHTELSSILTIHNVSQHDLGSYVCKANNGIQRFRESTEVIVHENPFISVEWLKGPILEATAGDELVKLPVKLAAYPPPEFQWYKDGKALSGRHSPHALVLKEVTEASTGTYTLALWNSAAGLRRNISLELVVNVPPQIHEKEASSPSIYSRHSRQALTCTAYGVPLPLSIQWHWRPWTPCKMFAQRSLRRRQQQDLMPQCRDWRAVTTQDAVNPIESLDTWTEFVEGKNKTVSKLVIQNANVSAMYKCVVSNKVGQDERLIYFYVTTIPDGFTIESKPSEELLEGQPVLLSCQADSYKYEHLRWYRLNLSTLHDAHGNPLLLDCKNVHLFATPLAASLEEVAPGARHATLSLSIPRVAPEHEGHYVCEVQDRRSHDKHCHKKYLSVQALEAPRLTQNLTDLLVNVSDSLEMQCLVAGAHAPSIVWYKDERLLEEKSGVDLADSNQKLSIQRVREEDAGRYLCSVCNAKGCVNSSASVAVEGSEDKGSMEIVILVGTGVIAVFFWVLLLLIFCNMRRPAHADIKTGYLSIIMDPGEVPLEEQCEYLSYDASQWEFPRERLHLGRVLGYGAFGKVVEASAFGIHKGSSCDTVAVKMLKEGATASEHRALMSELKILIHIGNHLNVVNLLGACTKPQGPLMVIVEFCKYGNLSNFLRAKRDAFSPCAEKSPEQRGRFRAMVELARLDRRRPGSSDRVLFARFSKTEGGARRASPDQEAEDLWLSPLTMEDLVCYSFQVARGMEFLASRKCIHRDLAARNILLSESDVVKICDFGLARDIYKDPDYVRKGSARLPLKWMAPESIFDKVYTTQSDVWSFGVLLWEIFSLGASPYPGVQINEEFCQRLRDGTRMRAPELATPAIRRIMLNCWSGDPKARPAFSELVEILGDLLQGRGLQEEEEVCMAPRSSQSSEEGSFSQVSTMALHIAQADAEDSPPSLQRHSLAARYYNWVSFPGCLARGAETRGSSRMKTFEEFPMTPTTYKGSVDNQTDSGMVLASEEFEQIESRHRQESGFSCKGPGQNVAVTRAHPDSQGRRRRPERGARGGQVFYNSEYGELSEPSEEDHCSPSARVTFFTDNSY

[5] = biological target: T2, Protein deacetylase HDAC6 (Homo sapiens, UniProt Q9UBN7); test: Inhibition of HDAC6 (unknown origin)
T2 sequence (Q9UBN7 whole entry): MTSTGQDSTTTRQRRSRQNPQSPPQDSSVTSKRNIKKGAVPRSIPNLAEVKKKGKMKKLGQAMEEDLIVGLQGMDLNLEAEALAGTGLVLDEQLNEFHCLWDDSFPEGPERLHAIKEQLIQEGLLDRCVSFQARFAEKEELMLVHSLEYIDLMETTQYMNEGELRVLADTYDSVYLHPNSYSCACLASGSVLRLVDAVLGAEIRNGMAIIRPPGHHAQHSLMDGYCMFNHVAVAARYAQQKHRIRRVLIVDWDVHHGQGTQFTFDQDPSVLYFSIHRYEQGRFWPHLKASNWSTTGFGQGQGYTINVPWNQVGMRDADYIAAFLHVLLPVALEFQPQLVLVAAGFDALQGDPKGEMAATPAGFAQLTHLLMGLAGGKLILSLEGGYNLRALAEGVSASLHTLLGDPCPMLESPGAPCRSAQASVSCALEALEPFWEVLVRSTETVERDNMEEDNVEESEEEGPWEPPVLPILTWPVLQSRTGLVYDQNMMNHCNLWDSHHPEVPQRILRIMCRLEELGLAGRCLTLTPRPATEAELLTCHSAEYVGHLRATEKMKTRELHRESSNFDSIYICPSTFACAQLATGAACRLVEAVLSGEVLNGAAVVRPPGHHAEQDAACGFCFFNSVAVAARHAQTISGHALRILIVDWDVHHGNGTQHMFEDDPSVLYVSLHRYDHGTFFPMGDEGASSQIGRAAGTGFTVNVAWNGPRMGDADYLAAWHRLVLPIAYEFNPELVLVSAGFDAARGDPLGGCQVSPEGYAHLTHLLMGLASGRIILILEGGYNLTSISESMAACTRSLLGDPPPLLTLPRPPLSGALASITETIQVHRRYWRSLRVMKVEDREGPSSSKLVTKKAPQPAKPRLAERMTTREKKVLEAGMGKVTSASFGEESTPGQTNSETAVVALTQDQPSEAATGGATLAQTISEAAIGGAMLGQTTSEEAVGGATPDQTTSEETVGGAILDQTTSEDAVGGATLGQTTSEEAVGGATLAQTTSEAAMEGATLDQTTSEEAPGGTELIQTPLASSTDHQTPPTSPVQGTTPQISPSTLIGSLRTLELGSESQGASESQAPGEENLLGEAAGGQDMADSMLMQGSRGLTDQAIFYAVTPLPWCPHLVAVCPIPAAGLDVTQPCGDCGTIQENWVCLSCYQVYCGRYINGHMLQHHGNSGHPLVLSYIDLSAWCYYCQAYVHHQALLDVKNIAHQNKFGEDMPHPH

[6] = biological target: T1, Vascular endothelial growth factor receptor 2; test: Inhibition of VEGFR2 (unknown origin) by kinase profiling assay
[7] = Cytotoxicity against HUVEC cells assessed as cell growth inhibition incubated for 72 hrs by MTT assay; type: toxicity, cell-based; conditions: human
[8] = biological target: T1, Vascular endothelial growth factor receptor 2; test: Inhibition of human VEGFR2 by discoverX kinome scan assay
MCF7 [9] = test: Antiproliferative activity against human MCF7 cells assessed as cell growth inhibition measured for 24 hrs by MTT assay; type: functional, cell-based; conditions: MCF7, 24 h
A498 [10] = test: Antiproliferative activity against human A498 cells assessed as growth inhibition at 10 uM after 48 hrs by sulforhodamine B assay relative to control; type: functional; design: scale not given: the % may be the effect or the level left
T47D = test: Antiproliferative activity against human T47D cells assessed as growth inhibition at 10 uM after 48 hrs by sulforhodamine B assay relative to control; type: functional; design: scale not given: the % may be the effect or the level left
MCF7 [11] = test: Cytotoxicity against human MCF7 cells assessed as reduction in cell viability measured after 72 hrs by MTT assay; type: functional, cell-based; conditions: MCF7, 72 h
[12] = biological target: T1, Vascular endothelial growth factor receptor 2; test: Inhibition of human recombinant VEGFR2 using biotinylated poly-GluTyr (4:1) as susbtrate measured for 1 hr by ELISA method
HCT-116 = test: Cytotoxicity against human HCT-116 cells assessed as reduction in cell viability measured after 72 hrs by MTT assay; type: functional, cell-based; conditions: HCT-116, 72 h
[13] = Cytotoxicity against African green monkey Vero cells assessed as inhibition of cell growth incubated for 24 hrs by MTT assay; type: toxicity, cell-based, Chlorocebus sabaeus
HepG2 [14] = test: Cytotoxicity against human HepG2 cells assessed as reduction in cell viability measured after 72 hrs by MTT assay; type: functional, cell-based; conditions: HepG2, 72 h
A498 [15] = test: Cytotoxicity against human A498 cells assessed as reduction in cell viability incubated for 48 hrs by MTT assay; type: functional, cell-based; conditions: A498, 48 h
CAKI-1 = test: Cytotoxicity against human CAKI-1 cells assessed as reduction in cell growth incubated for 48 hrs by MTT assay; type: functional, cell-based; conditions: CAKI-1, 48 h
A549 [16] = test: Antiproliferative activity against human A549 cells assessed as cell growth inhibition measured for 24 hrs by MTT assay; type: functional, cell-based; conditions: A549, 24 h
[17] = biological target: Epidermal growth factor receptor (Homo sapiens, UniProt P00533); test: Inhibition of EGFR (unknown origin) by DiscoverX KINOMEscan assay
HepG2 [18] = test: Antiproliferative activity against human HepG2 cells assessed as cell growth inhibition measured for 24 hrs by MTT assay; type: functional, cell-based; conditions: HepG2, 24 h
[19] = biological target: T1, Vascular endothelial growth factor receptor 2; test: Inhibition of human recombinant VEGFR2

COc1ccc(C2CC(c3ccc(Cl)cc3Cl)=NN2c2nc(C)c(C(=O)Nc3ccccc3)s2)cc1OC (stereo unspecified)
IC50 (NCI-H1650): 3.54 µM
IC50 (NCI-H1975): 4.41 µM
IC50 (A549 [1]): 2.92 µM
IC50 (NCI-H441): 3.8 µM

Cc1c2ccc(Nc3ccnc(Nc4ccc(NC(=O)CCCCCCC(=O)NO)cc4)n3)cc2nn1C
IC50 (Histone deacetylase 4): > 10 µM
IC50 (Histone deacetylase 1): 0.12 µM
IC50 [2]: 0.018 µM
IC50 [3]: 0.016 µM
IC50 [4]: 0.054 µM
IC50 [5]: 0.094 µM

COc1ccc(-c2nc3c4cc(-c5ccc(OC)cc5)oc4ccn3n2)cc1
IC50 [6]: 58 µM
IC50 at 72 h [7]: 22.6 µM
IC50 [8]: 58 µM

CCNC(=S)NS(=O)(=O)c1ccc(NC(=O)CSc2cc3ccccc3c(=O)n2CC)cc1
IC50 [8]: 3.1 µM

Cc1cc(Oc2ncnc3sc4c(c23)CCCCC4)ccc1Cl
IC50 (MCF7 [9]): 0.66 µM

O=C(Nc1ccccc1)Nc1ccc(Nc2ncnc3sc4c(c23)CCOC4)cc1
Activity (A498 [10]): 77.65%
Activity (T47D): 85.5%

COc1ccc(-c2cc3c(ccn4nc(-c5cccnc5)nc34)o2)cc1
IC50 [6]: 38.7 µM
IC50 at 72 h [7]: 17.4 µM
IC50 [8]: 38.7 µM

Cc1cc(C)nc(NS(=O)(=O)c2ccc(NN=C3C(=O)NNC3=O)cc2)n1
IC50 (MCF7 [11]): 10.6 µM
IC50 [12]: 0.14 µM
IC50 (HCT-116): 9.66 µM
IC50 at 24 h [13]: 39.4 µM
IC50 (HepG2 [14]): 6.43 µM

COc1ccc(/C=N/n2c(-c3cc4ccccc4[nH]3)n[nH]c2=S)cc1
IC50 (A498 [15]): 20.6 µM
IC50 (CAKI-1): 1.63 µM

CCOC(=O)c1sc(N2N=C(c3ccc(Cl)cc3Cl)CC2c2ccc(OC)cc2)nc1C (stereo unspecified)
IC50 (NCI-H1650): 5.68 µM
IC50 (NCI-H1975): 6.16 µM
IC50 (A549 [1]): 4.22 µM
IC50 (NCI-H441): 4.76 µM

Cc1c2ccc(N(C)c3ccnc(Nc4ccc(C(=O)Nc5ccccc5N)cc4)n3)cc2nn1C
IC50 (Histone deacetylase 4): > 10 µM

CCCNNC(=O)c1ccc(Nc2nccc(N(C)c3ccc4c(C)n(C)nc4c3)n2)cc1
IC50 (Histone deacetylase 4): > 10 µM
IC50 [2]: 0.034 µM
IC50 [4]: 0.037 µM
IC50 [5]: 8.96 µM

CCOC(=O)/C(C#N)=C(\c1ccc(O)cc1)N1CC(=O)N(/N=C(\C)c2ccc(O)cc2O)C1=S
IC50 (MCF7 [9]): 1.63 µM
IC50 (A549 [16]): 1.27 µM
IC50 [17]: 11.4 µM
IC50 (HepG2 [18]): 2.44 µM

Cc1[nH]c2ncnc(Nc3ccc(NC(=O)Nc4cccc(C(F)(F)F)c4)c(F)c3)c2c1C
IC50 [19]: 0.0524 µM

C/C(=N\N1C(=O)CNC1=S)c1ccc(O)cc1O
IC50 (MCF7 [9]): 2.26 µM
IC50 (A549 [16]): 3.14 µM
IC50 [17]: 23.2 µM
IC50 (HepG2 [18]): 5.18 µM

Cc1c2ccc(Nc3ccnc(Nc4ccc(OCCCCCCC(=O)NO)cc4)n3)cc2nn1C
IC50 (Histone deacetylase 4): > 9.17 µM
IC50 (Histone deacetylase 1): 0.24 µM
IC50 [2]: 0.041 µM
IC50 [3]: 0.032 µM
IC50 [4]: 0.066 µM
IC50 [5]: 0.063 µM

From ChEMBL document CHEMBL5500383, “Recent advances and future directions on small molecule VEGFR inhibitors in oncological conditions” (Eur J Med Chem, 2024)
